Legend:
male NMRI mice = assay: Antagonism of dexmedetomidine-induced locomotor inhibition; format: in vivo; details: various doses 20 min before dexmedetomidine 50 nmol/kg s.c.; activity measured 20 min after; atipamezole effective at 0.3 and 1.0 μmol/kg s.c. (p<0.01); FIG. 1
Description: Dexmedetomidine and atipamezole are very potent and specific alpha-2 adrenoceptor agonists and antagonists, respectively, which lack alpha-2 subtype selectivity (H. Scheinin et al., European Journal of Pharmacology, Molecular Section, vol.151(1), 1988, p.35-42). The alpha-2 agonist-induced sedation is known to be an alpha-2A-mediated phenomenon that can be antagonised by alpha-2 antagonists (J. Sallinen et al., Mol. Pharmacol. Vol.51, 1997, p.36-46, and A. Haapalinna et al., Naunyn-Schimiedeberg's Arch. Pharmacol. Vol.356, 1997, p.570-582). The sedative effect of alpha-2 agonists in mice is measured by the inhibition on locomotor activity. Therefore, we compared the ability of Compound I and atipamezole to antagonise the dexmedetomidine-induced locomotor inhibition to evaluate the in vivo alpha-2A adrenoceptor antagonism (and alpha-2C selectivity) of these compounds.
Spontaneous locomotor activity of a total of 76 male NMRI mice (B&K, Sweden) was measured by placing individual animals into a polypropylene animal cage (38×22×15 cm). The cages were surrounded with an infrared photobeam frame system designed for activity measurements (Photobeam Activity System PAS, Cage Rack, San Diego Instruments, San Diego, Calif., USA). […] Spontaneous locomotor activity was measured 20 min after dexmedetomidine injection.

Balb/c mice = assay: Mouse forced swimming test; format: in vivo; details: 0.3 μmol/kg 40 min before test; activity between 2 and 6 min; Compound 1 p=0.013, atipamezole p=0.52; FIG. 2
Description: This can be observed for example employing the forced swimming test, in which a rat or mouse is put into a water-filled cylinder. After a vigorous period of attempts to escape animals adopt an immobile floating posture; the extent of the immobile period is monitored and can be reduced by antidepressants and stress-protective agents. Transgenic mice that lack functional alpha-2C adrenoceptor tolerated swim-stress better than their similarly treated wild-type controls (J. Sallinen et al., Mol. Psychiatry, vol.4, 1999, p.443-452). Therefore, an increase in the forced swimming activity can be used as a measure of in vivo alpha-2C selective antagonism of a compound.
The forced swim test was conducted as originally described employing the stress sensitive (J. Crawley and L. Davis, Brain Research Bulletin, vol.8, 1982, p.609-612, and U.S. Pat. No. 5,902,807) Balb/c mouse strain (B&K, Sweden). The mice were administered either with vehicle (0.1% DMSO, 5 ml/kg subcutaneously), Compound 10.3 μmol/kg, or atipamezole 0.3 μmol/kg 40 min before putting the mice into a vessel (10 cm diameter, 18.5 cm height, filled with 25° C. water up to 8 cm height). The cumulative activity of each mouse was measured between 2 and 6 min after introduction to the vessel. Only vigorous attempts to escape (climbing) were registered. The mice (a total of 96) were tested only once.

test animals = details: literature report; cited from earlier work
brain = details: employed doses of atipamezole; literature report; cited from earlier work

SMILES	antagonism of dexmedetomidine-induced sedation (locomotor inhibition) (male NMRI mice)	stress-protective effect: forced swimming activity (climbing) vs vehicle (Balb/c mice)	stress-protective effect (test animals)	neurochemical effect: noradrenaline release in brain (brain)
CN1CCN(c2ccc(Nc3c4ccccc4nc4ccccc34)cc2)CC1 [Compound 1, Acridin-9-yl-[4-(4-methylpiperazin-1-yl)-phenyl]amine]	did not antagonise the alpha-2-agonist-induced sedation at all	tolerated clearly better stress-induced propagation of behavioural despair		
CCC1(c2cnc[nH]2)Cc2ccccc2C1 [atipamezole]	inhibited dexmedetomidine-induced sedation	did not have any clear effect on the activity	did not have a clear stress-protective effect	stimulate noradrenaline release in brain
